Experiment [1] has as its target T1, hPARP1 (Homo sapiens, UniProt P09874).
T1 construct: gene PARP1
In words: […] auto-ADP-ribosylation (poly-Glu), SDS-PAGE autoradiography. The format is biochemical. The following applies: labelled compound (32P-NAD+); 50 µM NAD+, activated DNA, 2 mM MgCl2, pH 8, room temperature; no HPF1.

In experiment [2] the target is T2, hPARP1 (Homo sapiens, UniProt P09874, E988Q).
T2 construct: gene PARP1
In words: […] auto-mono-ADP-ribosylation, SDS-PAGE autoradiography. The format is biochemical. The following applies: labelled compound (32P-NAD+); 50 µM NAD+, activated DNA, 2 mM MgCl2, pH 8, room temperature; no HPF1.

Structures are written as SMILES.

From PMC10238386, “Serine ADP-ribosylation in Drosophila provides insights into the evolution of reversible ADP-ribosylation signalling” (Nature Communications, 2023) come the findings set out here.

T1 sequence (P09874 2-1014): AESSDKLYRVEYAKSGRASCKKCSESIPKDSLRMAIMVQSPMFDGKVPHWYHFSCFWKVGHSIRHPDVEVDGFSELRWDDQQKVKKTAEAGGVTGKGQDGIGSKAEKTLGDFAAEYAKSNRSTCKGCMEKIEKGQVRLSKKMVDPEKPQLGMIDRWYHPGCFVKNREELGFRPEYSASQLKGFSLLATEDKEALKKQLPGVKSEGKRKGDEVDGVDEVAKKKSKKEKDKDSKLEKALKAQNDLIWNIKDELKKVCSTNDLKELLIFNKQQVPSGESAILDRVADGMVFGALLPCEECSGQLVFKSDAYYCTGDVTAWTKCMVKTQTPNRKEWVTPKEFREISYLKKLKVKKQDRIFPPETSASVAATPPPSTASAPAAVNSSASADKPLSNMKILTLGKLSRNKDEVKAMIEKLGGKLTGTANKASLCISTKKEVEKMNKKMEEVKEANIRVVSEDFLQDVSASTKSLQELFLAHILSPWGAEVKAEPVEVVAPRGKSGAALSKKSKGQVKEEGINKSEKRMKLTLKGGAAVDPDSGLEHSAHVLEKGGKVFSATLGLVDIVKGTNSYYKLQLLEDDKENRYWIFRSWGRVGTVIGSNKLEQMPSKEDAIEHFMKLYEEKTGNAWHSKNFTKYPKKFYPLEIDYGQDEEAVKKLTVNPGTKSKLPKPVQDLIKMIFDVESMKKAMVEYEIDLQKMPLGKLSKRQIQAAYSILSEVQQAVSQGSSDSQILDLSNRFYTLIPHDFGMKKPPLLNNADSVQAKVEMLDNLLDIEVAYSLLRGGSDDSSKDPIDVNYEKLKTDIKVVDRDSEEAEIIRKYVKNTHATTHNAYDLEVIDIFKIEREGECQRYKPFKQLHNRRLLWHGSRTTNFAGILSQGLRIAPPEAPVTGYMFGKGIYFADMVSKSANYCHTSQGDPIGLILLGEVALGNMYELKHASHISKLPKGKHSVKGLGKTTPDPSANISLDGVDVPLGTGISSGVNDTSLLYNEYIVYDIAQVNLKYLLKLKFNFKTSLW
T2 sequence (P09874 2-1014 E988Q): as the sequence (P09874 2-1014) above, with E987Q counted along it

As for `NC(=O)c1ccc[n+]([C@@H]2O[C@H](COP(=O)(O)OP(=O)(O)OC[C@H]3O[C@@H](n4cnc5c(N)ncnc54)[C@H](O)[C@@H]3O)[C@@H](O)[C@H]2O)c1` [NAD^+], on hPARP1 [1], the “32P auto-ADP-ribosylation (poly-Glu), SDS-PAGE autoradiography” value is “recombinant proteins or peptides were ADP-ribosylated by hPARP1 to produce Glu-ADPr”. The “32P auto-mono-ADP-ribosylation, SDS-PAGE autoradiography” value on hPARP1 [2] is listed as “we generated the mono-ADPr variants using the hPARP1 E988Q mutant”.
